From PMC5750218, “Protein-inspired antibiotics active against vancomycin- and daptomycin-resistant bacteria” (Nature Communications, 2018)
Values after ≈ are worked out from the molar mass of the structure shown. Where two headings read alike, the source gives them in different places.

How the values were obtained:
[1] = test system: Methicillin-sensitive S. aureus ATCC 29213; assay: microbe, parasite or virus in culture; format: cell-based, Staphylococcus aureus; conditions: for MIC: Staphylococcus aureus, ATCC 29213 / MSSA
Procedure: Antimicrobial activity of compounds was tested against a number of bacterial strains by broth microdilution (BMD) assay with MIC determination, including S. aureus (MSSA ATCC® 29213™, MRSA ATCC® 43300™, VISA NARSA NRS1, VISA NARSA NRS4), Streptococcus pneumoniae (MDR ATCC® 700677™) and Enterococcus faecium (MDR VanA ATCC® 51559™). ATCC strains were sourced from the American Type Culture Collection and NRS strains from NARSA (Network on Antimicrobial Resistance in S. aureus) via BEI Resources (www.beiresources.org). All compounds were prepared to 160 µg mL^−1 solution in water from a stock solution of 1 mM concentration.
[…] […] Standards ranged from 64 to 0.03 µg mL^−1 and compounds from 8 to 0.003 µg mL^−1 with final assay volumes of 100 µL per well. Gram-positive bacteria were cultured in Mueller Hinton broth (MHB) (Bactolaboratories, Cat. no. 211443) at 37 °C overnight. A sample of each culture was then diluted 40-fold in fresh MHB and incubated at 37 °C for 2–3 h. The resultant mid-log phase cultures were added to the compound-containing 96-well plates to give a final cell density of 5 × 10^5 colony forming unit (CFU) mL^−1. All the plates were covered and incubated at 37 °C for 24 h. MICs were the lowest concentration showing no visible growth.

[2] = test system: Vancomycin-resistant (VanA) Enterococcus faecium ATCC 51559; assay: microbe, parasite or virus in culture; conditions: for MIC: Enterococcus faecium, ATCC51559 / VRE, read-out: MIC VRE
Outline: (§1)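 Growth inhibition measured by broth microdilution (MHB, 37 °C, 24 h incubation). MIC defined visually as the lowest inhibitory concentration.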

[3] = test system: Multi-drug-resistant S. pneumoniae ATCC 700677; assay: microbe, parasite or virus in culture; conditions: for MIC: Streptococcus pneumoniae, ATCC700677, read-out: MIC MDR S.P.
Outline: as §1

[4] = test system: Vancomycin-intermediate S. aureus NRS1; assay: microbe, parasite or virus in culture; conditions: for MIC: Staphylococcus aureus, NRS1 / VISA, read-out: MIC VISA
Outline: as §1

[5] = test system: Vancomycin-resistant S. aureus NARSA VRS4; assay: microbe, parasite or virus in culture; format: cell-based, Staphylococcus aureus; conditions: for MIC: Staphylococcus aureus, VRSA, read-out: MIC VRSA
Cytotoxicity MTT assay = format: cell-based, human; conditions: human
[6] = test system: Methicillin-resistant S. aureus ATCC 43300; assay: microbe, parasite or virus in culture; conditions: for MIC: Staphylococcus aureus
Outline: as §1

S. aureus ATCC 43300 = assay: Membrane permeability assay (propidium iodide); format: cell-based, Staphylococcus aureus; conditions: for Fold higher propidium iodide fluorescence than oritavancin: 16 µg mL^−1, MRSA ATCC 43300
Procedure: To evaluate the ability of the compounds to disrupt the cytoplasmic membrane integrity, the membrane impermeable fluorescent DNA intercalating dye propidium iodide (PI) was used. Early exponential phase cells were pelleted and washed twice in 10 mM HEPES buffer (pH 7.4) containing 50 µg mL^−1 of CaCl2 and 5 mM glucose, and then re-suspended in the same buffer (4 × 10^8 CFU mL^−1). Cell suspension was added to a 384-well black walled polystyrene plate (Corning, CLS3573) containing compounds, giving a final concentration of 16 µg mL^−1. After 1 h incubation at 37 °C, 5 µg mL^−1 of PI was added and fluorescence was monitored for 90 min using a Tecan Infinite® m1000 Pro Multi-mode reader (excitation/emission 535/620 nm). Data were corrected by subtraction of fluorescence signal arising from untreated cells in the presence of PI. […] Each sample was tested in quadruplicate and independent assays were performed twice showing similar results. Data was analysed and presented using Prism software.

Structure (SMILES): CN[C@H](CC(C)C)C(=O)N[C@H]1C(=O)N[C@@H](CC(N)=O)C(=O)N[C@H]2C(=O)N[C@H]3C(=O)N[C@H](C(=O)N[C@H](C(=O)O)c4cc(O)cc(O)c4-c4cc3ccc4O)[C@H](O)c3ccc(c(Cl)c3)Oc3cc2cc(c3O[C@@H]2O[C@H](CO)[C@@H](O)[C@H](O)[C@H]2O[C@H]2C[C@](C)(N)[C@H](O)[C@H](C)O2)Oc2ccc(cc2Cl)[C@H]1O [Compound 1, Vancomycin]
- MIC ([1]; read-out: MIC MSSA): 1 µg/mL (≈ 0.69 µM)
- MIC ([1]; read-out: MIC S. aureus ATCC29213 MSSA, NBS): 1 µg/mL (≈ 0.69 µM)
- MIC ([1]; read-out: MIC S. aureus ATCC29213 MSSA, PP): 1 µg/mL (≈ 0.69 µM)
- MIC ([1]; read-out: MIC S. aureus ATCC29213 MSSA, PS): 2 µg/mL (≈ 1.38 µM)
- MIC ([1]; read-out: MIC S. aureus ATCC29213 MSSA, PS+P-80): 1 to 2 µg/mL (≈ 0.69 to 1.38 µM)
- MIC [2]: > 64 µg/mL
- MIC [3]: 1 µg/mL (≈ 0.69 µM)
- MIC [4]: 4 µg/mL (≈ 2.76 µM)
- MIC [5]: > 64 µg/mL
- CC50 at 24 h (Cytotoxicity MTT assay; 24 h, MTT, 1% FBS, read-out: Cytotoxicity CC50 HepG2): 6300 µM
- MIC ([6]; ATCC43300|MRSA, 24 h, read-out: MIC MRSA, S. aureus ATCC 43300, NBS plates, MHB, 24 h, substance alone): 1 µg/mL (≈ 0.69 µM)
- MIC ([6]; ATCC43300|MRSA, read-out: MIC S. aureus ATCC 43300 MRSA, NBS, non-binding surface plate): 1 µg/mL (≈ 0.69 µM)
- MIC ([6]; ATCC43300|MRSA, read-out: MIC S. aureus ATCC 43300 MRSA, PP, polypropylene plate): 2 µg/mL (≈ 1.38 µM)
- MIC ([6]; ATCC43300|MRSA, read-out: MIC S. aureus ATCC 43300 MRSA, PS+P-80, polystyrene plate with 0.002% polysorbate-80): 2 µg/mL (≈ 1.38 µM)
- MIC ([6]; ATCC43300|MRSA, read-out: MIC S. aureus ATCC 43300 MRSA, PS, polystyrene plate, no polysorbate-80): 2 µg/mL (≈ 1.38 µM)
- Membrane permeabilisation (propidium iodide fluorescence) (S. aureus ATCC 43300; 16 µg mL^−1, 1 h, MRSA ATCC 43300): little to no effect

Structure (SMILES): CCCCCCCCCC(=O)N[C@@H](Cc1c[nH]c2ccccc12)C(=O)N[C@H](CC(N)=O)C(=O)N[C@@H](CC(=O)O)C(=O)N[C@@H]1C(=O)NCC(=O)N[C@@H](CCCN)C(=O)N[C@@H](CC(=O)O)C(=O)N[C@H](C)C(=O)N[C@@H](CC(=O)O)C(=O)NCC(=O)N[C@H](CO)C(=O)N[C@@H]([C@H](C)CC(=O)O)C(=O)N[C@@H](CC(=O)c2ccccc2N)C(=O)O[C@@H]1C [Compound 4, Daptomycin]
- MIC ([1]; S. aureus ATCC 29213, read-out: MIC MSSA): 1 µg/mL (≈ 0.617 µM)
- MIC ([1]; non-binding surface plate, read-out: MIC S. aureus ATCC29213 MSSA, NBS): 0.5 to 1 µg/mL (≈ 0.309 to 0.617 µM)
- MIC ([1]; polypropylene plate, read-out: MIC S. aureus ATCC29213 MSSA, PP): 1 µg/mL (≈ 0.617 µM)
- MIC ([1]; polystyrene plate with 0.002% polysorbate-80, read-out: MIC S. aureus ATCC29213 MSSA, PS+P-80): 1 µg/mL (≈ 0.617 µM)
- MIC ([1]; polystyrene plate, no polysorbate-80, read-out: MIC S. aureus ATCC29213 MSSA, PS): 1 µg/mL (≈ 0.617 µM)
- MIC [2]: 16 µg/mL (≈ 9.87 µM)
- MIC [3]: 2 µg/mL (≈ 1.23 µM)
- MIC [4]: 12 µg/mL (≈ 7.4 µM)
- MIC ([5]; S. aureus NARSA VRS4): 3 µg/mL (≈ 1.85 µM)
- CC50 at 24 h (Cytotoxicity MTT assay): > 500 µM
- MIC ([6]; ATCC43300 / MRSA, 24 h, read-out: MIC MRSA): 2 µg/mL (≈ 1.23 µM)
- MIC ([6]; ATCC43300|MRSA, read-out: MIC S. aureus ATCC 43300 MRSA, NBS): 1 µg/mL (≈ 0.617 µM)
- MIC ([6]; ATCC43300|MRSA, read-out: MIC S. aureus ATCC 43300 MRSA, PP): 1 µg/mL (≈ 0.617 µM)
- MIC ([6]; ATCC43300|MRSA, read-out: MIC S. aureus ATCC 43300 MRSA, PS): 1 µg/mL (≈ 0.617 µM)
- MIC ([6]; ATCC43300|MRSA, read-out: MIC S. aureus ATCC 43300 MRSA, PS+P-80): 1 µg/mL (≈ 0.617 µM)
- Fold higher propidium iodide fluorescence than oritavancin (S. aureus ATCC 43300; listed as Daptomycin): 4–6 fold
- Fold higher propidium iodide fluorescence than oritavancin (S. aureus ATCC 43300; listed as daptomycin): approximately 6 fold

Structure (SMILES): CNC(=O)[C@H](CCCCNC(=O)[C@H]1NC(=O)[C@H]2NC(=O)[C@H](NC(=O)[C@@H]3NC(=O)[C@H](CC(N)=O)NC(=O)[C@H](NC(=O)[C@@H](CC(C)C)NC)[C@H](O)c4ccc(c(Cl)c4)Oc4cc3cc(c4O[C@@H]3O[C@H](CO)[C@@H](O)[C@H](O)[C@H]3O[C@H]3C[C@](C)(N)[C@H](O)[C@H](C)O3)Oc3ccc(cc3Cl)[C@H]2O)c2ccc(O)c(c2)-c2c(O)cc(O)cc21)NC(=O)[C@H](CCCCN)NC(=O)[C@H](CCCCN)NC(=O)[C@H](CCCCNC(=O)c1ccc(Oc2ccccc2)cc1)NC(=O)c1ccc(Oc2ccccc2)cc1 [Compound 24, POB2K-KK-K(Vancomycin)-NHMe]
- MIC MSSA ([1]; ATCC 29213): ≤0.016 µg/mL
- MIC S. aureus ATCC29213 MSSA, PP ([1]; ATCC 29213): 1 µg/mL (≈ 0.422 µM)
- MIC S. aureus ATCC29213 MSSA, PS ([1]; ATCC 29213): 2 µg/mL (≈ 0.845 µM)
- MIC S. aureus ATCC29213 MSSA, PS+P-80 ([1]; ATCC 29213): 0.031 µg/mL (≈ 0.0131 µM)
- MIC VRE ([2]; ATCC 51559): 0.5 µg/mL (≈ 0.211 µM)
- MIC MDR S.P. ([3]; ATCC 700677): <0.003 µg/mL
- MIC VISA ([4]; Vancomycin-intermediate NRS1): 0.125 µg/mL (≈ 0.0528 µM)
- MIC VRSA ([5]; S. aureus NARSA VRS4): 0.08 µg/mL (≈ 0.0338 µM)
- CC50 at 24 h (Cytotoxicity MTT assay): 100 µM
- MIC S. aureus ATCC 43300 MRSA, NBS ([6]; ATCC 43300): ≤ 0.016 µg/mL
- MIC S. aureus ATCC 43300 MRSA, PP ([6]; ATCC 43300): 1 µg/mL (≈ 0.422 µM)
- MIC S. aureus ATCC 43300 MRSA, PS ([6]; ATCC 43300): 2 µg/mL (≈ 0.845 µM)
- MIC S. aureus ATCC 43300 MRSA, PS+P-80 ([6]; ATCC 43300): ≤ 0.016 µg/mL
- Membrane permeabilisation (propidium iodide fluorescence) (S. aureus ATCC 43300): comparable fluorescence intensity to oritavancin
